This is an account of results in patent US12612368B2 (Remedy Plan, Inc., priority 2019, dated 2026).

pIC50: −log10 of the molar value. Read-outs that look alike come from different tables or passages of the source.

For one assay, the system named is MV-4-11 cells. Description: Cell viability in MV-4-11 cells (CellTiter Glo2). It is filed as cell-based. To be noted: Homo sapiens, MV4-11, 96 h, 8-point dose response, 4 days. In general terms: Cellular ATP, detected with luciferase, serves as a proxy for viable cell number.
The next assay has as its target T1, NAMPT (Homo sapiens, UniProt P43490).
T1 construct: purchased Abcam ab221819
Description: NAMPT Activity Assay (Abcam #ab221819). To be noted: purified NAMPT, two-step reaction, OD450 nm; percent inhibition vs no drug; compound concentration not stated. It is filed as biochemical.

Setting [1] is: CellTiter Glo2 (Table E2), read-out: MV-4-11 Cell Viability, MV-4-11 IC50.
Where [2] appears, read: CellTiter Glo2 (Table E1), read-out: MV-4-11 IC50.

T1 sequence (P43490 whole entry): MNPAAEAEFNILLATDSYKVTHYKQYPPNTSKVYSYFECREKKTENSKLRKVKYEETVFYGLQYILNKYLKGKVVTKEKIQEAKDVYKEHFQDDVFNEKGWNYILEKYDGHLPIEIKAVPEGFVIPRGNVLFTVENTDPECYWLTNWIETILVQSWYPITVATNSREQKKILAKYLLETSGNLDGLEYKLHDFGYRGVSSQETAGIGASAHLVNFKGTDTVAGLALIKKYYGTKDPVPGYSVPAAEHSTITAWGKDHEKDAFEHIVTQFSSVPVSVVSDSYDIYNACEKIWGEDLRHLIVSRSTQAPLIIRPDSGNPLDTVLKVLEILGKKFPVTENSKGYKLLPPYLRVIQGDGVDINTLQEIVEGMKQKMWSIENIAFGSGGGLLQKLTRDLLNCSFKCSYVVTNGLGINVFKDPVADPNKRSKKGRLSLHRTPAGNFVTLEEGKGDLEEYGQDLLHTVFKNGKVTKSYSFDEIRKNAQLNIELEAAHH
Description for MV-4-11 cells: Approximately 10,000 MV-4-11 cells per well of a 96-well plate were treated with DMSO (no drug control) or each compound in Tables E1 and E2 in an 8-point dose response for 4 days, Cell viability was measured using CellTiter Glo2. The ICse of each compound was determined using CDD Vault.
Description for NAMPT: The NAMPT Activity Assay (Abcam #ab221819) was performed following manufacturers two-step reaction protocol. Briefly, compounds were added to a clear 96-well plate using the HP D300e Digital Dispenser. Purified NAMPT was added to all wells except the No NAMPT controls. Reaction Mix #1 was added to each well and the plate was incubated at 30*C for 1 hr followed by the addition of Reaction Mix #2. Absorbance was measured at OD450 nm using a multimode plate reader. Readings were recorded for 5 minutes and percent inhibition was calculated using: (1-(OD450 nm compound/OD450 nm no drug))*100.

On to `CCC(=O)N(C)c1ccc(-c2ccc(C(=O)NCc3cccnc3)cn2)cc1` [Compound I-331, 6-[4-[Methyl(propanoyl)amino]phenyl]-N-(3-pyridylmethyl)pyridine-3-carboxamide], for which, in the assay with MV-4-11 cells (setting [1]), the negative logarithm of the IC50 (pIC50) (in general, −log10 of the IC50, conventionally taken in molar units) is 6.36. Also, the “NAMPT Inhibition Code” value at NAMPT was “A (A = <33% inhibition)”.

Regarding `CC(=O)N(CC(C)C)c1ccc(-c2ccc(C(=O)NCc3cccnc3C)cn2)cc1Cl` [Compound I-459, 6-[4-[acetyl(isobutyl)amino]-3-chloro-phenyl]-N-[(2-methyl-3-pyridyl)methyl]pyridine-3-carboxamide], the negative-log IC50 (pIC50) in the assay on MV-4-11 cells (setting [1]) is 5.82. On NAMPT, the “NAMPT Inhibition Code” value is listed as “A (A = <33% inhibition)”.

For the molecule `COC(=O)NCCN(C(C)=O)c1ccc(-c2ccc(C(=O)NCc3cccnc3C)cn2)cc1C` [Compound I-487, Methyl N-[2-[N-acetyl-2-methyl-4-[5-[(2-methyl-3-pyridyl)methylcarbamoyl]-2-pyridyl]anilino]ethyl]carbamate], the pIC50 in the assay with MV-4-11 cells (setting [1]) is 5.36. Moreover, at NAMPT, the “NAMPT Inhibition Code” value is “A (A = <33% inhibition)”.

Take `CC(C)CN(CC(C)C)c1ccc(-c2ccc(C(=O)NCc3cccnc3)cc2)cc1` [Compound I-406, 4-[4-(diisobutylamino)phenyl]-N-(3-pyridylmethyl)benzamide]: in the assay with MV-4-11 cells (setting [2]), the negative logarithm of the IC50 (pIC50) was 6.09. The “NAMPT Inhibition Code” value on NAMPT is listed as “B (B = ≥33 to <66% inhibition)”.

As to `CC(=O)N(CC1CC1)c1ccc(-c2ccc(C(=O)Nc3ccn4ccnc4c3)cn2)cc1Cl` [Compound I-687, 6-[4-[Acetyl(cyclopropylmethyl)amino]-3-chloro-phenyl]-N-imidazo[1,2-a]pyridin-7-yl-pyridine-3-carboxamide], the negative logarithm of the IC50 (pIC50) in the assay on MV-4-11 cells (setting [1]) is 6.58. The “NAMPT Inhibition Code” value on NAMPT is listed as “A (A = <33% inhibition)”.

As to `CC(=O)N(CCC#N)c1ccc(-c2ccc(C(=O)NCc3cccnc3)cn2)cc1` [Compound I-484, 6-[4-[acetyl(2-cyanoethyl)amino]phenyl]-N-(3-pyridylmethyl)pyridine-3-carboxamide], the negative-log IC50 (pIC50) in the assay on MV-4-11 cells (setting [1]) was 5.58. Also, the “NAMPT Inhibition Code” value at NAMPT is listed as “A (A = <33% inhibition)”.

Regarding `CC(=O)N(CC1COC1)c1ccc(-c2ccc(C(=O)NCc3cccnc3)cn2)cc1Cl` [Compound I-620, 6-[4-[Acetyl(oxetan-3-ylmethyl)amino]-3-chloro-phenyl]-N-(3-pyridylmethyl)pyridine-3-carboxamide], in the assay on MV-4-11 cells (setting [1]), the negative logarithm of the IC50 (pIC50) is 8.09. Also, the “NAMPT Inhibition Code” value at NAMPT is “C (C = ≥66% inhibition)”.

For `CC(=O)N(c1ccc(-c2ccc(C(=O)NCc3cccnc3)cc2)cc1F)C(C)C` [Compound I-630, 4-[4-[Acetyl(isopropyl)amino]-3-fluoro-phenyl]-N-(3-pyridylmethyl)benzamide], the pIC50 with MV-4-11 cells (setting [1]) is 6.86. In addition, the “NAMPT Inhibition Code” value on NAMPT is on record as “C (C = ≥66% inhibition)”.

Turning to `CC(=O)N(C)c1ccc(-c2ccc(C(=O)NCc3cccnc3C)cn2)cc1C(F)(F)F` [Compound I-455, 6-[4-[acetyl(methyl)amino]-3-(trifluoromethyl)phenyl]-N-[(2-methyl-3-pyridyl)methyl]pyridine-3-carboxamide], the negative-log IC50 (pIC50) with MV-4-11 cells (setting [1]) was 5.46. Moreover, the “NAMPT Inhibition Code” value on NAMPT is “A (A = <33% inhibition)”.

For `CC(=O)N(CC(F)F)c1ccc(-c2ccc(C(=O)NCc3cccnc3)cn2)cc1` [Compound I-631, 6-[4-[Acetyl(2,2-difluoroethyl)amino]phenyl]-N-(3-pyridylmethyl)pyridine-3-carboxamide], the pIC50 with MV-4-11 cells (setting [1]) was 5.80. Moreover, on NAMPT, the “NAMPT Inhibition Code” value is reported as “B (B = ≥33 to <66% inhibition)”.

For the molecule `CCC(=O)N(C)c1ccc(-c2ccc(C(=O)NCc3ccc(F)nc3C)cn2)cc1` [Compound I-390, N-[(6-fluoro-2-methyl-3-pyridyl)methyl]-6-[4-[methyl(propanoyl)amino]phenyl]pyridine-3-carboxamide], in the assay on MV-4-11 cells (setting [2]), the pIC50 was 5.37. The “NAMPT Inhibition Code” value on NAMPT is given as “A (A = <33% inhibition)”.

`CC(=O)N(CC(C)C)c1ccc(-c2ccc(C(=O)NCc3cccnc3C)cn2)cc1C` [Compound I-454, 6-[4-[acetyl(isobutyl)amino]-3-methyl-phenyl]-N-[(2-methyl-3-pyridyl)methyl]pyridine-3-carboxamide]: the negative logarithm of the IC50 (pIC50) with MV-4-11 cells (setting [1]) is 5.67. Also, the “NAMPT Inhibition Code” value at NAMPT is recorded as “A (A = <33% inhibition)”.

For the molecule `CC(=O)N(CC1CCC1)c1ccc(-c2ccc(C(=O)NCc3cccnc3)cn2)cc1` [Compound I-453, 6-[4-[acetyl(cyclobutylmethyl)amino]phenyl]-N-(3-pyridylmethyl)pyridine-3-carboxamide], the pIC50 with MV-4-11 cells (setting [1]) is 7.42. Also, on NAMPT, the “NAMPT Inhibition Code” value is reported as “C (C = ≥66% inhibition)”.

As to `CCCN(C(=O)CC)c1ccc(-c2ccc(C(=O)NCc3cccnc3)cn2)cc1` [Compound I-410, 6-[4-[propanoyl(propyl)amino]phenyl]-N-(3-pyridylmethyl)pyridine-3-carboxamide], the negative-log IC50 (pIC50) with MV-4-11 cells (setting [2]) is 6.92. Moreover, the “NAMPT Inhibition Code” value on NAMPT was “B (B = ≥33 to <66% inhibition)”.

For `CC(=O)N(CC(C)C)c1ccc(-c2ccc(C(=O)NCc3cccnc3)cn2)cc1Cl` [Compound I-599, 6-[4-[Acetyl(isobutyl)amino]-3-chloro-phenyl]-N-(3-pyridylmethyl)pyridine-3-carboxamide], the negative logarithm of the IC50 (pIC50) in the assay with MV-4-11 cells (setting [1]) is 8.48. The “NAMPT Inhibition Code” value at NAMPT is “C (C = ≥66% inhibition)”.

In the case of `CC(=O)N(CC(F)F)c1ccc(-c2ccc(C(=O)NCc3cccnc3)cn2)cc1Cl` [Compound I-619, 6-[4-[Acetyl(2,2-difluoroethyl)amino]-3-chloro-phenyl]-N-(3-pyridylmethyl)pyridine-3-carboxamide], the pIC50 with MV-4-11 cells (setting [1]) is 7.17. For the same molecule, the “NAMPT Inhibition Code” value on NAMPT is listed as “C (C = ≥66% inhibition)”.

Regarding `CCC(=O)Nc1ccc(-c2ccc(C(=O)NCc3cccnc3)cn2)cc1` [Compound I-354, 6-[4-(propanoylamino)phenyl]-N-(3-pyridylmethyl)pyridine-3-carboxamide], the pIC50 in the assay on MV-4-11 cells (setting [2]) was under 4.52. Further, the “NAMPT Inhibition Code” value on NAMPT was “A (A = <33% inhibition)”.

On to `CCC(=O)N(C)c1ccc(-c2ccc(C(=O)NCc3cccnc3C)cc2)cc1Cl` [Compound I-460, 4-[3-chloro-4-[methyl(propanoyl)amino]phenyl]-N-[(2-methyl-3-pyridyl)methyl]benzamide], for which, in the assay on MV-4-11 cells (setting [1]), the pIC50 is under 6.16. The “NAMPT Inhibition Code” value on NAMPT is listed as “A (A = <33% inhibition)”.

Take `CC(=O)N(C)c1ccc(-c2ccc(C(=O)NCc3cccnc3)cn2)cc1C` [Compound I-425, 6-[4-[acetyl(methyl)amino]-3-methyl-phenyl]-N-(3-pyridylmethyl)pyridine-3-carboxamide]: the pIC50 in the assay with MV-4-11 cells (setting [2]) is 5.78. Further, the “NAMPT Inhibition Code” value on NAMPT is on record as “A (A = <33% inhibition)”.

Consider `CC(=O)N(CCC(F)F)c1ccc(-c2ccc(C(=O)NCc3cccnc3)cn2)cc1` [Compound I-629, 6-[4-[Acetyl(3,3-difluoropropyl)amino]phenyl]-N-(3-pyridylmethyl)pyridine-3-carboxamide], for which the pIC50 in the assay with MV-4-11 cells (setting [1]) is 6.45. For the same molecule, at NAMPT, the “NAMPT Inhibition Code” value was “B (B = ≥33 to <66% inhibition)”.

For the molecule `CC(=O)N(CC(C)C)c1ccc(-c2ccc(C(=O)NCc3cccnc3)cn2)cc1` [Compound I-404], the pIC50 in the assay on MV-4-11 cells (setting [2]) was 7.49. On NAMPT, the “NAMPT Inhibition Code” value is “B (B = ≥33 to <66% inhibition)”.

Take `CCCN(C(C)=O)c1ccc(-c2ccc(C(=O)NCc3cccnc3)cn2)cc1Cl` [Compound I-606, 6-[4-[Acetyl(propyl)amino]-3-chloro-phenyl]-N-(3-pyridylmethyl)pyridine-3-carboxamide]: the pIC50 in the assay with MV-4-11 cells (setting [1]) was 7.68. Also, the “NAMPT Inhibition Code” value on NAMPT is on record as “C (C = ≥66% inhibition)”.

Turning to `Cc1cc(-c2ccc(C(=O)NCc3cccnc3)cn2)ccc1N(C)C(=O)CCN` [Compound I-593, 6-[4-[3-aminopropanoyl(methyl)amino]-3-methyl-phenyl]-N-(3-pyridylmethyl)pyridine-3-carboxamide], the pIC50 with MV-4-11 cells (setting [1]) is 5.83. At NAMPT, the “NAMPT Inhibition Code” value is “A (A = <33% inhibition)”.

Turning to `CC(=O)N(c1ccc(-c2ccc(C(=O)NCc3cccnc3)cc2)cc1Cl)C(C)C` [Compound I-597, 4-[4-[Acetyl(isopropyl)amino]-3-chloro-phenyl]-N-(3-pyridylmethyl)benzamide], in the assay on MV-4-11 cells (setting [1]), the negative logarithm of the IC50 (pIC50) is 7.67. Besides, on NAMPT, the “NAMPT Inhibition Code” value is “C (C = ≥66% inhibition)”.

Consider `CC(=O)N(CC(C)C)c1ccc(-c2ccc(C(=O)NCc3cccnc3)cn2)cc1C` [Compound I-594, 6-[4-[Acetyl(isobutyl)amino]-3-methyl-phenyl]-N-(3-pyridylmethyl)pyridine-3-carboxamide], for which, in the assay with MV-4-11 cells (setting [1]), the pIC50 was over 8.18. For the same molecule, the “NAMPT Inhibition Code” value at NAMPT is recorded as “C (C = ≥66% inhibition)”.

As for `CCC(=O)N(C)c1ccc(-c2ccc(C(=O)NCc3ccc(OC)nc3)cn2)cc1C` [Compound I-451], the negative logarithm of the IC50 (pIC50) with MV-4-11 cells (setting [1]) is 5.27. Further, the “NAMPT Inhibition Code” value at NAMPT is on record as “B (B = ≥33 to <66% inhibition)”.

Regarding `CCN(C(C)=O)c1ccc(-c2ccc(C(=O)NCc3cccnc3)cn2)cc1C` [Compound I-430, 6-[4-[acetyl(ethyl)amino]-3-methyl-phenyl]-N-(3-pyridylmethyl)pyridine-3-carboxamide], the pIC50 with MV-4-11 cells (setting [2]) is 6.57. Besides, the “NAMPT Inhibition Code” value on NAMPT was “B (B = ≥33 to <66% inhibition)”.

As to `CC(=O)N(c1ccc(-c2ccc(C(=O)NCc3cccnc3)cc2)cc1C)C(C)C` [Compound I-624, 4-[4-[Acetyl(isopropyl)amino]-3-methyl-phenyl]-N-(3-pyridylmethyl)benzamide], the pIC50 in the assay on MV-4-11 cells (setting [1]) was 7.40. Also, on NAMPT, the “NAMPT Inhibition Code” value is given as “B (B = ≥33 to <66% inhibition)”.

On to `Cc1cc(-c2ccc(C(=O)NCc3cccnc3)cn2)ccc1N(C(=O)C(F)F)C(C)C` [Compound I-595, 6-[4-[(2,2-Difluoroacetyl)-isopropyl-amino]-3-methyl-phenyl]-N-(3-pyridylmethyl)pyridine-3-carboxamide], for which, in the assay with MV-4-11 cells (setting [1]), the negative-log IC50 (pIC50) is 8.34. Further, the “NAMPT Inhibition Code” value at NAMPT is listed as “C (C = ≥66% inhibition)”.
